Reference: patent US20130272962A1, “STAINING AGENT FOR CORNEAL STAINING” (FLUORON GMBH, priority 2012, published 2013)
One block for each compound: values may come before it.

Legend:
[1] = system: Human Retinal Pigment Epithelial Cells; conditions: Veckeneer et al. 2002 (rabbit eyes); Rezai et al. 2004; cited from earlier work
[2] = Cahen 1964; product information BLURHEX; cited from earlier work
cornea = conditions: Ünlü et al. 2000; Gamal Eldin et al. 1999; cited from earlier work
[3] = Staining of ophthalmic membranes
[4] = Solubility of the dyestuff in liquids for application in the eye; type: physicochemical; conditions: for solubility in liquids suitable for application in the anterior and posterior region of the eye: balanced salt solution (BSS), water for injection; for solubility in liquids that are heavier than water: ≧1.01 g/cm^3, e.g. polyethylene glycol
[5] = Ito et al. 2004; cited from earlier work
[6] = system: Human Retinal Pigment Epithelium in Vitro; conditions: Wu et al. 2005; cited from earlier work
eukaryotes = conditions: cited from earlier work
[7] = system: Human Corneal Epithelial Cells; conditions: intensified by interaction with light; Kim et al. 1999; cited from earlier work

Compound: Cc1cc(-c2ccc(/N=N/c3c(S(=O)(=O)O)cc4cc(S(=O)(=O)O)cc(N)c4c3O)c(C)c2)ccc1/N=N/c1c(S(=O)(=O)O)cc2cc(S(=O)(=O)O)cc(N)c2c1O [trypan blue]
cytotoxicity [1]: cytotoxic
teratogenic or mutagenic effect [2]: teratogenic or mutagenic effect

Compound: CN(C)c1ccc(C(=C2C=CC(=[N+](C)C)C=C2)c2ccc(N(C)C)cc2)cc1 [Gentian violet]
corneal oedema (cornea): cause corneal oedemas

solubility in liquids suitable for application in the anterior and posterior region of the eye [4]: very readily soluble
solubility in liquids that are heavier than water [4]: very readily soluble
Compound: CCN(CC)c1ccc(C(=C2C=CC(=[N+](CC)Cc3cccc(S(=O)(=O)[O-])c3)C=C2)c2ccc(N(CC)Cc3cccc(S(=O)(=O)O)c3)cc2)cc1 [Acid Violet 17]
coloring of the inner limiting membrane (ILM) and the anterior and posterior lens capsules [3]: capable of coloring both the inner limiting membrane (ILM) and the anterior and posterior lens capsules
staining of the cornea or constituents thereof [3]: capable of staining the cornea or constituents thereof

solubility in liquids suitable for application in the anterior and posterior region of the eye [4]: very readily soluble
solubility in liquids that are heavier than water [4]: very readily soluble
Compound: CCOc1ccc(Nc2ccc(/C(=C3C=C/C(=[N+](/CC)Cc4cccc(S(=O)(=O)[O-])c4)C=C/3C)c3ccc(N(CC)Cc4cccc(S(=O)(=O)[O-])c4)cc3C)cc2)cc1.[Na+] [BBG, Brilliant Blue G]
coloring of the inner limiting membrane (ILM) and the anterior and posterior lens capsules [3]: capable of coloring both the inner limiting membrane (ILM) and the anterior and posterior lens capsules
staining of the cornea or constituents thereof [3]: capable of staining the cornea or constituents thereof

Compound: CC1(C)C(/C=C/C=C/C=C/C=C2\N(CCCCS(=O)(=O)O)c3ccc4ccccc4c3C2(C)C)=[N+](CCCCS(=O)(=O)[O-])c2ccc3ccccc3c21 [ICG, indocyanine green]
cytotoxicity [5]: cytotoxic
phototoxicity [6]: phototoxic

Compound: [2H]O[2H] [Heavy water, D2O]
concentration in water tolerated by eukaryotes (eukaryotes): ≤ 20%

Compound: O=C([O-])c1c(Cl)c(Cl)c(Cl)c(Cl)c1-c1c2cc(I)c(=O)c(I)c-2oc2c(I)c([O-])c(I)cc12.[Na+].[Na+] [Rose bengal]
cytotoxicity [7]: cytotoxic
